Measurements as given in patent publication US20150320709A1, “METHODS AND COMPOSITIONS FOR FACILITATING WEIGHT LOSS BY ADMINISTRATION OF THYROID HORMONES” (priority 2011, published 2015).

What was measured:
[1] = Existing thyroid therapy in subjects undergoing a weight loss regimen (general finding); format: in vivo; conditions: T4 alone or T3:T4 at ratios of less than 1:2
From the text: Such T4 based therapy often serves to increase levels of rT3 and decreases levels of circulating T3, thereby undermining attempts to counter hypothyroidism and effect continued weight loss.

[2] = Low thyroid symptoms / clinical status of weight loss program patients on thyroid hormone treatment; format: in vivo, human; conditions: Patient Example 2; 75 mcg daily, within a few weeks of switch from desiccated thyroid
Protocol: (§1) The first patient example is a person, 5′2″, weight 268 lbs, body mass index (BMI) 49 (nl 19-24; overweight 25-29; obesity≧30). Baseline blood pressure was 110/74, blood sugar (BS) was 153 mg/dL 10 days after their first visit. Their medical problems at baseline included obesity, type 2 diabetes mellitus (DM2), high blood pressure (HTN), fatigue, depression, and asthma. Their medications included glipizide 10 mg daily, amitriptyline 50 mg daily, metoprolol 50 mg daily, furosemide 40 mg daily, potassium chloride, lisinopril 10 mg daily, Advair Discus 500/50 twice daily (bid), and montelukast 10 mg daily. They were started on our comprehensive program. Five months after starting their weight loss treatment, they developed symptoms of hypothyroidism with constipation and fatigue. They had lost 28 lbs by this time and was having difficulty losing more weight even though they were eating less than they were before their weight loss treatment began. At the start of treatment, their FT4 was 0.9 ng/dL (nl 0.7-1.48). At the time of their low thyroid symptoms, their FT3 was 2.9 pg/mL (nl 1.71-3.71) and their FT4 was 0.91 ng/dL (nl 0.7-1.48). They were then treated with thyroid hormone (desiccated thyroid with a ratio of T4:T3 of about 4:1) at 60 mg daily for 6 days to acclimate, then increased to 120 mg daily. […] After two years on their weight loss treatment, their weight was 231 lbs. […] We tested for rT3 at this point. Their labs on the 150 mg dose of desiccated thyroid were: rT3 394 pg/mL (nl 90-350), FT3 3.94 pg/mL (nl 1.71-3.71), and FT4 1.24 ng/dL (nl 0.7-1.48). The task of bringing down their rT3 was then addressed. Over a period of a few months, their desiccated thyroid hormone was discontinued and instead the patient was given gradually increasing doses of T3 only, starting at 20 mcg daily and gradually increasing the T3 to 60 mcg bid. Five months after starting on T3 with increasing doses, their weight had dropped to 209 lbs. Their BP was 118/66 mmHg with pulse of 74 on lisinopril 10 mg daily, metoprolol 50 mg bid, and furosemide 40 mg daily. Instead of glipizide, they were taking metformin 500 mg bid. […] Their most recent labs on 60 mcg bid of T3 were FT3 3.8 pg/mL (nl 1.71-3.71), FT4 0.64 ng/dL (nl 0.7-1.48) and rT3 137 pg/mL (nl 90-350). Four months prior to this visit their BS was 125 mg/dl.
The second patient example is a person, 5′2″, weight 150 lbs, BMI 28 (nl 18.5-24.9; overweight 25-29.9; obesity≧30), with HTN. Their blood pressure was slightly elevated at 148/85 (on lisinopril 5 mg daily). Their medical problems at baseline included history of Hashimoto's thyroiditis, borderline high TSH, elevated lipids, and HTN. Their medications were lisinopril 5 mg daily, estradiol 2 mg daily, and rofecoxib 25 mg daily for osteoarthritis of their large joints. […]

[3] = Circulating thyroid hormone labs (FT3, FT4, rT3, TSH) in weight loss program patients on thyroid hormone treatment; format: in vivo, human
From the text: FIG. 1 depicts hormonal responses to a hypocaloric state with subsequent treatment. Note: Time frames and shapes of response curves are approximated. Levels of all four hormones are normal before the diet (Time A). At time between time points B and D, TSH is dropping slightly to signal the thyroid gland to make less thyroid hormone. This drop is the mechanism to decrease metabolism in the hypocaloric state. At point C, free T3 begins to drop as rT3 increases. Also at time point C, different observations have been reported for changes in FT4: in our experience, FT4 also drops as indicated on the graph. In the literature, some report no change, whereas others report an increase in FT4. By the time of the blood sampling (time E), in our experience, patients whose FT3 and FT4 have dropped to the low end of normal (with possible above normal rT3 levels) are those experiencing symptoms of low thyroid. They may have any of the following symptoms: feeling cold, cold hands and feet, elevated diastolic blood pressure secondary to vasoconstriction, fatigue, depression, constipation, hair loss, dry skin, insomnia, as well as others. They have often hit a plateau of weight loss even though they have continued to maintain their hypocaloric diet and exercise program. At point F, we begin treatment with thyroid hormone (for example, T4 with T3, T3 alone, T3 with T2 and T4, or T2 alone. Between points F and G, FT3 and rT3 (and FT4 if T4 was administered) are returning to more normal levels, while TSH plummets, often to undetectable levels. At time point H, symptoms of low thyroid are resolved, the patient has no symptoms of hyperthyroidism, and if rT3 had risen and was treated appropriately, rT3 decreased.
as §1, with “mg/dl. […]” for “mg/dl.”

[4] = tested on: thyroid hormone receptors; conditions: cited from earlier work
[5] = Low thyroid symptoms / clinical status of weight loss program patients on thyroid hormone treatment; format: in vivo, human

SMILES: N[C@@H](Cc1cc(I)c(Oc2cc(I)c(O)c(I)c2)c(I)c1)C(=O)O [T4, (2S)-2-amino-3-[4-(4-hydroxy-3,5-diiododophenoxy)-3,5-diiodophenyl]propanoic acid]
- correction of thyroid abnormalities and/or hypothyroidism so as to permit continuing weight loss [1]: fails to correct thyroid abnormalities and/or hypothyroidism
- low thyroid symptoms [2]: began to feel tired, cold, and depressed and developed constipation and hair loss
- TSH ([3]; Patient Example 2, 75 mcg daily): 0.91 uIU/mL
- FT4 ([3]; Patient Example 2, 75 mcg daily, nl 0.93-1.70): 1.07 ng/dL
- FT3 ([3]; Patient Example 2, 75 mcg daily, nl 2.2-4.0): 2.3 pg/mL

SMILES: N[C@@H](Cc1ccc(Oc2cc(I)c(O)c(I)c2)c(I)c1)C(=O)O [rT3, reverse triiodothyronine]
- action on thyroid hormone receptors [4]: does not stimulate thyroid hormone receptors but instead binds to these receptors

SMILES: N[C@@H](Cc1cc(I)c(Oc2ccc(O)cc2)c(I)c1)C(=O)O [T2, 3,5-diiodo-1-thyronine]
- reported symptoms ([5]; Patient Example 3, T2 2 mcg SR q AM added, T3 25 mcg b.i.d., 10 days after start of T2): surfaces of their body were now warm and not numb, and that their skin and hair had improved
- energy levels ([5]; Patient Example 3, T2 2 mcg SR q AM added, T3 decreased to 25 mcg b.i.d., two days later): energy levels were normalized
- low thyroid symptoms ([5]; Patient Example 3, over six weeks after starting the T2 regimen): not suffering from any symptoms of low thyroid
- reported symptoms ([5]; Patient Example 4, T2 2 mcg q AM and 8-10 hours later added, T3 reduced to 50 mcg twice daily, nearly two months): no complaints of fatigue and reported that only a slight coldness persisted
- FT4 ([3]; Patient Example 3, T2 2 mcg SR q AM added, T3 25 mcg b.i.d., normal range 0.93-1.7): 0.23 ng/dL
- FT3 ([3]; Patient Example 3, T2 2 mcg SR q AM added, T3 25 mcg b.i.d., normal range 2.2-4.0): 3.2 pg/mL
- rT3 ([3]; Patient Example 3, T2 2 mcg SR q AM added, T3 25 mcg b.i.d., normal range 90-350): 69 pg/mL
- FT3 ([3]; Patient Example 4, T2 2 mcg twice daily added, T3 50 mcg twice daily, normal range 2.2-4.0): 2.7 pg/mL
